Measurements as given in PubChem BioAssay AID256 (DTP/NCI, 2004).
“And” between values parts separate entries of the source, which are not always exact repeats. Equal values may be shown once. Inconclusive results and toxic doses are left out.

Tested on: CD2F1 mice, L1210 leukemia ip, survival T/C
Experiment: NCI In Vivo Anticancer Drug Screen. Data for tumor model L1210 Leukemia (intraperitoneal) in CD2F1 (CDF1) mice
Details: endpoint: mean survival time, higher = longer survival
Method in brief: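 Vehicle-treated tumor-bearing mice served as controls (C) for compound-treated mice (T). Reported figure is T divided by C.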

[1] = dose: 25.0 mg/kg/injection, schedule: Q01DX009 (ip), vehicle: saline with Tween-80
[2] = dose: 50.0 mg/kg/injection, schedule: Q01DX009 (ip), vehicle: saline with Tween-80
[3] = dose: 100.0 mg/kg/injection, schedule: Q01DX009 (ip), vehicle: saline with Tween-80
[4] = dose: 100.0 mg/kg/injection, schedule: Q04DX003 (ip), vehicle: saline with Tween-80
[5] = dose: 100.0 mg/kg/injection, schedule: Q01DX001 (ip), vehicle: saline with Tween-80
[6] = dose: 25.0 mg/kg/injection, schedule: Q04DX003 (ip), vehicle: saline sonified
[7] = dose: 50.0 mg/kg/injection, schedule: Q04DX003 (ip), vehicle: saline sonified
[8] = dose: 200.0 mg/kg/injection, schedule: Q01DX009 (ip), vehicle: saline with Tween-80
[9] = dose: 200.0 mg/kg/injection, schedule: Q04DX003 (ip), vehicle: saline with Tween-80
[10] = dose: 400.0 mg/kg/injection, schedule: Q01DX009 (ip), vehicle: saline with Tween-80
[11] = dose: 400.0 mg/kg/injection, schedule: Q04DX003 (ip), vehicle: saline with Tween-80
[12] = dose: 100.0 mg/kg/injection, schedule: Q04DX003 (ip), vehicle: Klucel (hydroxypropylcellulose) (HPC)
[13] = dose: 100.0 mg/kg/injection, schedule: Q04DX002 (ip), vehicle: saline with Tween-80
[14] = dose: 200.0 mg/kg/injection, schedule: Q04DX002 (ip), vehicle: saline with Tween-80

How did the T/C [1] turn out when COc1cccc(/C(C)=N\NC(=O)c2ccccc2)c1 was run?
Its T/C is 98 % of control.

What about the T/C [2] of the same compound?
The T/C was 95 % of control.

And the T/C [3]?
The T/C was 88 % of control.

And the T/C [4]?
The T/C was 96 % of control.

Which results are given for O=C(Cc1ccccc1)c1ccccc1?
T/C [5]: 102 % of control; T/C (dose: 200.0 mg/kg/injection, schedule: Q01DX001 (ip), vehicle: saline with Tween-80): 102 % of control; T/C (dose: 400.0 mg/kg/injection, schedule: Q01DX001 (ip), vehicle: saline with Tween-80): 94 % of control

With CC1(C)N=C(N)N=C(N)N1c1cccc(CCCCc2ccc(S(=O)(=O)F)cc2Cl)c1 as the compound, how does the T/C (dose: 12.5 mg/kg/injection, schedule: Q01DX009 (ip), vehicle: saline sonified) read?
Its T/C is 87 % of control.

What about the T/C (dose: 12.5 mg/kg/injection, schedule: Q04DX003 (ip), vehicle: saline sonified) of the same compound?
The T/C was 96 % of control.

And the T/C (dose: 25.0 mg/kg/injection, schedule: Q01DX009 (ip), vehicle: saline sonified)?
Its T/C is 89 % of control.

And the T/C [6]?
Its T/C is 96 % of control.

What about the T/C [7] of the same compound?
The T/C was 92 % of control.

What does the source list for CCCCOC(=O)c1ccccc1?
T/C [3]: 102 % of control; T/C [8]: 104 % of control

With CCOC(=O)C(CCC#N)(CCC#N)C(=O)OCC as the compound, how does the T/C [3] read?
Its T/C is 91 % of control.

What about the T/C [4] of the same compound?
Its T/C is 96 % of control.

What about the T/C [8] of the same compound?
Its T/C is 94 % of control.

And the T/C [9]?
Its T/C is 102 % of control.

What about the T/C [10] of the same compound?
Its T/C is 94 % of control.

And the T/C [11]?
Its T/C is 104 % of control.

Which results are given for Nc1ccc(C(=O)O)cc1S(=O)(=O)O?
T/C (dose: 25.0 mg/kg/injection, schedule: Q01DX001 (ip), vehicle: Klucel (hydroxypropylcellulose) (HPC)): 96 % of control; T/C (dose: 50.0 mg/kg/injection, schedule: Q01DX001 (ip), vehicle: Klucel (hydroxypropylcellulose) (HPC)): 100 % of control; T/C (dose: 100.0 mg/kg/injection, schedule: Q01DX001 (ip), vehicle: Klucel (hydroxypropylcellulose) (HPC)): 107 % of control

For CN(C(=O)C(=O)c1ccccc1NC(=O)c1ccc(Cl)cc1)c1ccccc1, which T/C (dose: 25.0 mg/kg/injection, schedule: Q04DX003 (ip), vehicle: Klucel (hydroxypropylcellulose) (HPC)) is on record?
The T/C was 102 % of control.

What about the T/C (dose: 50.0 mg/kg/injection, schedule: Q04DX003 (ip), vehicle: Klucel (hydroxypropylcellulose) (HPC)) of the same compound?
Its T/C is 106 % of control.

And the T/C [12]?
The T/C was 104 % of control.

What does the source list for Cc1cn2ccccc2c[n+]1=O?
T/C (dose: 5.0 mg/kg/injection, schedule: Q04DX003 (ip), vehicle: saline with Tween-80): 103 % of control; T/C (dose: 10.0 mg/kg/injection, schedule: Q04DX003 (ip), vehicle: saline with Tween-80): 108 % of control; T/C (dose: 20.0 mg/kg/injection, schedule: Q04DX003 (ip), vehicle: saline with Tween-80): 97 % of control

What does the source list for O=C(O)c1ccccc1-c1ccccc1C(=O)Nc1ccc2c(c1)Cc1ccccc1-2?
T/C (dose: 62.5 mg/kg/injection, schedule: Q04DX003 (ip), vehicle: saline with Tween-80): 101 % of control; T/C (dose: 125.0 mg/kg/injection, schedule: Q04DX003 (ip), vehicle: saline with Tween-80): 98 % of control; T/C (dose: 250.0 mg/kg/injection, schedule: Q04DX003 (ip), vehicle: saline with Tween-80): 98 % of control

With O=C(O)C1C2c3cccc4cccc(c34)C12 (stereo not drawn) as the compound, how does the T/C [2] read?
The T/C was 101 % of control.

And the T/C [3]?
The T/C was 97 % of control.

And the T/C [4]?
Its T/C is 101 % of control.

And the T/C [8]?
The T/C was 109 % of control.

And the T/C [9]?
Its T/C is 101 % of control.

Which T/C (dose: 50.0 mg/kg/injection, schedule: Q01DX009 (ip), vehicle: Klucel (hydroxypropylcellulose) (HPC)) does the source give for Cc1ccc([N+](=O)[O-])cc1NC(=O)Nc1c(C)n(C)n(-c2ccccc2)c1=O here?
Its T/C is 93 % of control.

What about the T/C (dose: 100.0 mg/kg/injection, schedule: Q01DX009 (ip), vehicle: Klucel (hydroxypropylcellulose) (HPC)) of the same compound?
The T/C was 89 % of control.

And the T/C (dose: 200.0 mg/kg/injection, schedule: Q01DX009 (ip), vehicle: Klucel (hydroxypropylcellulose) (HPC))?
Its T/C is 93 % of control.

Cc1cc[n+](-c2c3c(nc4ccccc24)-c2ccccc2C(C)(C)C3)cc1 was tested. Which T/C [6] did it give?
Its T/C is 96 % of control.

What about the T/C [7] of the same compound?
Its T/C is 102 % of control.

What about the T/C [5] of the same compound?
The T/C was 96 % of control.

O=C(OC(c1ccccc1)c1ccccc1)C(CSC(c1ccccc1)(c1ccccc1)c1ccccc1)NC(c1ccccc1)(c1ccccc1)c1ccccc1 (stereo not drawn) was tested. Which T/C (dose: 50.0 mg/kg/injection, schedule: Q01DX009 (ip), vehicle: saline) did it give?
The T/C was 96 % of control.

What about the T/C (dose: 100.0 mg/kg/injection, schedule: Q01DX009 (ip), vehicle: saline) of the same compound?
Its T/C is 101 % of control.

And the T/C (dose: 200.0 mg/kg/injection, schedule: Q01DX009 (ip), vehicle: saline)?
Its T/C is 102 % of control.

What about the T/C (dose: 400.0 mg/kg/injection, schedule: Q01DX009 (ip), vehicle: saline) of the same compound?
The T/C was 98 % of control.

Which T/C [4] does the source give for CC1Sc2ccccc2-c2[nH]c3ccccc3c21 (stereo not drawn) here?
Its T/C is 97 % of control.

What about the T/C [9] of the same compound?
Its T/C is 87 % of control.

What about the T/C [11] of the same compound?
Its T/C is 90 % of control.

What does the source list for c1ccc(N/N=C(/C[n+]2cc3ccccc3c3ccccc32)c2ccccc2)cc1?
T/C [12]: 94 % of control; T/C (dose: 200.0 mg/kg/injection, schedule: Q04DX003 (ip), vehicle: Klucel (hydroxypropylcellulose) (HPC)): 106 % of control; T/C (dose: 400.0 mg/kg/injection, schedule: Q04DX003 (ip), vehicle: Klucel (hydroxypropylcellulose) (HPC)): 109 % of control

For CCCCCCCCC[n+]1ccc(C(N)=O)cc1, which T/C [1] is on record?
The T/C was 103 % of control.

And the T/C [2]?
The T/C was 95 % of control.

What about the T/C [3] of the same compound?
Its T/C is 95 % of control.

What does the source list for CC(=O)OCc1ccc(Cl)cc1Cl?
T/C [3]: 98 % of control; T/C [8]: 104 % of control; T/C [10]: 95 % of control

How did the T/C (dose: 50.0 mg/kg/injection, schedule: Q04DX002 (ip), vehicle: saline with Tween-80) turn out when Cc1oc([N+](=O)[O-])c(C)c1C(=O)O was run?
Its T/C is 101 % of control.

And the T/C [13]?
The T/C was 97 % of control.

What about the T/C [14] of the same compound?
The T/C was 104 % of control.

For C=CCNC(=O)NCC=C, which T/C (dose: 3.13 mg/kg/injection, schedule: Q01DX009 (ip), vehicle: saline) is on record?
Its T/C is 102 % of control and 110 % of control (2×).

And the T/C (dose: 12.5 mg/kg/injection, schedule: Q01DX005 (ip), vehicle: saline)?
The T/C was 102 % of control.

What about the T/C (dose: 12.5 mg/kg/injection, schedule: Q02DX005 (ip), vehicle: saline) of the same compound?
The T/C was 97 % of control.

And the T/C (dose: 12.5 mg/kg/injection, schedule: Q04DX003 (ip), vehicle: saline)?
Its T/C is 100 % of control.

What about the T/C (dose: 25.0 mg/kg/injection, schedule: Q01DX005 (ip), vehicle: saline) of the same compound?
Its T/C is 105 % of control.

And the T/C (dose: 25.0 mg/kg/injection, schedule: Q02DX005 (ip), vehicle: saline)?
Its T/C is 100 % of control.

And the T/C (dose: 25.0 mg/kg/injection, schedule: Q04DX003 (ip), vehicle: saline)?
The T/C was 102 % of control.

And the T/C (dose: 50.0 mg/kg/injection, schedule: Q01DX005 (ip), vehicle: saline)?
Its T/C is 103 % of control.

What about the T/C (dose: 50.0 mg/kg/injection, schedule: Q02DX005 (ip), vehicle: saline) of the same compound?
Its T/C is 103 % of control.

And the T/C (dose: 50.0 mg/kg/injection, schedule: Q04DX003 (ip), vehicle: saline)?
Its T/C is 103 % of control.

And the T/C (dose: 100.0 mg/kg/injection, schedule: Q01DX005 (ip), vehicle: saline)?
Its T/C is 109 % of control.

What about the T/C (dose: 100.0 mg/kg/injection, schedule: Q01DX006 (ip), vehicle: saline) of the same compound?
The T/C was 154 % of control.

And the T/C (dose: 100.0 mg/kg/injection, schedule: Q02DX005 (ip), vehicle: saline)?
The T/C was 105 % of control.

And the T/C (dose: 100.0 mg/kg/injection, schedule: Q03DX003 (ip), vehicle: saline)?
Its T/C is 120 % of control.

And the T/C (dose: 100.0 mg/kg/injection, schedule: Q04DX003 (ip), vehicle: saline)?
Its T/C is 115 % of control and 109 % of control.

And the T/C (dose: 200.0 mg/kg/injection, schedule: Q01DX006 (ip), vehicle: saline)?
Its T/C is 168 % of control.

What about the T/C (dose: 200.0 mg/kg/injection, schedule: Q02DX005 (ip), vehicle: saline) of the same compound?
The T/C was 109 % of control.

What about the T/C (dose: 200.0 mg/kg/injection, schedule: Q04DX003 (ip), vehicle: saline) of the same compound?
The T/C was 115 % of control and 120 % of control.

And the T/C (dose: 400.0 mg/kg/injection, schedule: Q02DX005 (ip), vehicle: saline)?
Its T/C is 115 % of control.

And the T/C (dose: 400.0 mg/kg/injection, schedule: Q04DX003 (ip), vehicle: saline)?
Its T/C is 97 % of control.

For O.O=[Se](=O)(O)O.[NH-]C1CCCCC1[NH-].[Pt+2] (stereo not drawn), which T/C (dose: 2.0 mg/kg/injection, schedule: Q01DX009 (ip), vehicle: dextrose) is on record?
Its T/C is 88 % of control.

What about the T/C (dose: 3.0 mg/kg/injection, schedule: Q01DX009 (ip), vehicle: dextrose) of the same compound?
Its T/C is 109 % of control.

What about the T/C (dose: 8.0 mg/kg/injection, schedule: Q04DX003 (ip), vehicle: dextrose) of the same compound?
The T/C was 87 % of control.

What does the source list for N#CCCN=C1C=CC(=C(c2ccccc2)c2ccc(NCCC#N)cc2)C=C1?
T/C [13]: 103 % of control; T/C [14]: 103 % of control; T/C (dose: 400.0 mg/kg/injection, schedule: Q04DX002 (ip), vehicle: saline with Tween-80): 107 % of control
